Reference: patent US11802120B2, “Fused cyclic urea derivatives as CRHR2 antagonist” (RaQualia Pharma Inc., priority 2018, dated 2023)

Each compound was assayed against T1, human CRHR2-alpha (Homo sapiens, UniProt Q13324) (assay: cAMP functional assay for human CRHR2 (LANCE Ultra cAMP, TR-FRET)). Conditions: CHO-K1 cells expressing human CRHR2-alpha, agonist human urocortin2 at EC80, cAMP; read-out: IC50 against CRHR2.
T1 sequence (Q13324 1-411): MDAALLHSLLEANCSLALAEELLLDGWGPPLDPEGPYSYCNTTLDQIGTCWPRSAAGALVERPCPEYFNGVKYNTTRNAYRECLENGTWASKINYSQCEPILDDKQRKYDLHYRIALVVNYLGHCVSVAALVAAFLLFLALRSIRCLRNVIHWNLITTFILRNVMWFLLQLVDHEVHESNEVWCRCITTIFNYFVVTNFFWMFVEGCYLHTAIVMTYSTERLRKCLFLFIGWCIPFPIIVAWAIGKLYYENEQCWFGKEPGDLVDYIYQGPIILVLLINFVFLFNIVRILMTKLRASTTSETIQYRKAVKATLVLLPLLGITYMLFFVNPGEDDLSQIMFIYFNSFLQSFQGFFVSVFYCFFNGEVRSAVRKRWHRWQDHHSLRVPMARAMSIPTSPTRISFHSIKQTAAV
Type: cell-based
In short: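 First, starved and frozen CHO-K1 cells expressing the receptor are thawed into IBMX-containing HBSS buffer (pH 7.4). Next, compounds are added for 30 min at 25° C. Then agonist at EC80 (urocortin2 or CRF, per receptor) is added for another 30 min, followed by cAMP detection reagents.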

Row | Structure (SMILES) | IC50
1 | CN(C)c1ccc(-n2c(=O)n(C[C@H]3CC[C@H](NC(=O)c4cc(Cl)cnc4C(F)(F)F)CC3)c3ccccc32)cn1 [Example 333, 5-chloro-N-((1r,4r)-4-((3-(6-(dimethylamino)pyridin-3-yl)-2-oxo-2,3-dihydro-1H-benzo [d]imidazol-1-yl)methyl)cyclohexyl)-2-(trifluoromethyl) nicotinamide] | < 300 nM
2 | O=C(N[C@H]1CC[C@H](Cn2c(=O)n(-c3ccncc3Cl)c3ccccc32)CC1)c1cc(Cl)cnc1C(F)(F)F [Example 334, 5-chloro-N-((1r,4r)-4-((3-(3-chloropyridin-4-yl)-2-oxo-2,3-dihydro-1H-benzo[d]imidazol-1-yl)methyl)cyclo-hexyl)-2-(trifluoromethyl) nicotinamide] | < 300 nM
3 | CNC(=O)c1ccc(-n2c(=O)n(C[C@H]3CC[C@H](NC(=O)c4cc(Cl)cnc4COC)CC3)c3ccccc32)cn1 [Example 335, 5-(3-(((1r,4r)-4-(5-chloro-2-(methoxymethyl)nico-tinamido)cyclohexyl)methyl)-2-oxo-2,3-dihydro-1H-benzo[d]imidazol-1-yl)-N-methylpicolinamide] | < 300 nM
4 | Cc1cc(-n2c(=O)n(C[C@H]3CC[C@H](NC(=O)c4cc(Cl)cnc4C)CC3)c3ccccc32)c(C)cn1 [Example 336, 5-chloro-N-((1r,4r)-4-((3-(2,5-dimethylpyridin-4-yl)-2-oxo-2,3-dihydro-1H-benzo[d]imidazol-1-yl)methyl)cyclohexyl)-2-methylnicotinamide] | < 300 nM
5 | Cc1ncc(Cl)cc1C(=O)N[C@H]1CC[C@H](Cn2c(=O)n(-c3cccc4cccnc34)c3ccccc32)CC1 [Example 337, 5-chloro-2-methyl-N-((1r,4r)-4-((2-oxo-3-(quinolin-8-yl)-2,3-dihydro-1H-benzo[d]imidazol-1-yl)methyl)cyclo-hexyl)nicotinamide] | < 300 nM
6 | Cc1ncc(Cl)cc1C(=O)N[C@H]1CC[C@H](Cn2c(=O)n(-c3cncc4ccccc34)c3ccccc32)CC1 [Example 338, 5-chloro-N-((1r,4r)-4-((3-(isoquinolin-4-yl)-2-oxo-2,3-dihydro-1H-benzo[d]imidazol-1-yl)methyl)cyclo-hexyl)-2-methylnicotinamide] | < 300 nM
7 | Cc1ncc(Cl)cc1C(=O)N[C@H]1CC[C@H](Cn2c(=O)n(-c3ccc4nn(C5COC5)nc4c3)c3ccccc32)CC1 [Example 340, 5-chloro-2-methyl-N-((1r,4r)-4-((3-(2-(oxetan-3-yl)-2H-benzo[d][1,2,3]triazol-5-yl)-2-oxo-2,3-dihydro-1H-benzo [d]imidazol-1-yl)methyl)cyclohexyl)nicotinamide] | < 300 nM
8 | Cc1ncc(Cl)cc1C(=O)N[C@H]1CC[C@H](Cn2c(=O)n(-c3ccc4c(c3)nnn4C3COC3)c3ccccc32)CC1 [Example 341, 5-chloro-2-methyl-N-((1r,4r)-4-((3-(1-(oxetan-3-yl)-1H-benzo[d][1,2,3]triazol-5-yl)-2-oxo-2,3-dihydro-1H-benzo[d]imidazol-1-yl)methyl)cyclohexyl)nicotinamide] | < 300 nM
9 | O=C(N[C@H]1CC[C@H](Cn2c(=O)n(-c3ccn4cncc4c3)c3ccccc32)CC1)c1cc(Cl)cnc1C(F)(F)F [Example 342, 5-chloro-N-((1r,4r)-4-((3-(imidazo[1,5-a]pyridin-7-yl)-2-oxo-2,3-dihydro-1H-benzo[d]imidazol-1-yl)methyl)cyclohexyl)-2-(tri-fluoromethyl)nicotinamide] | < 300 nM
10 | Cc1ncc(Cl)cc1C(=O)N[C@H]1CC[C@H](Cn2c(=O)n(-c3cccc4cnccc34)c3ccccc32)CC1 [Example 343, 5-chloro-N-((1r,4r)-4-((3-(isoquinolin-5-yl)-2-oxo-2,3-dihydro-1H-benzo[d]imidazol-1-yl)methyl)cyclo-hexyl)-2-methylnicotinamide] | < 300 nM
11 | Cc1ncc(Cl)cc1C(=O)N[C@H]1CC[C@H](Cn2c(=O)n(-c3ccc4ncccc4c3)c3ccccc32)CC1 [Example 344, 5-chloro-2-methyl-N-((1r,4r)-4-((2-oxo-3-(quinolin-6-yl)-2,3-dihydro-1H-benzo[d]imidazol-1-yl)methyl)cyclo-hexyl)nicotinamide] | < 300 nM
12 | Cc1ncc(Cl)cc1C(=O)N[C@H]1CC[C@H](Cn2c(=O)n(-c3cccc4ncccc34)c3ccccc32)CC1 [Example 345, 5-chloro-2-methyl-N-((1r,4r)-4-((2-oxo-3-(quinolin-5-yl)-2,3-dihydro-1H-benzo[d]imidazol-1-yl)methyl)cyclo-hexyl)nicotinamide] | < 300 nM
13 | Cc1ncc(Cl)cc1C(=O)N[C@H]1CC[C@H](Cn2c(=O)n(-c3cnc4ccccc4c3)c3ccccc32)CC1 [Example 346, 5-chloro-2-methyl-N-((1r,4r)-4-((2-oxo-3-(quinolin-3-yl)-2,3-dihydro-1H-benzo[d]imidazol-1-yl)methyl)cyclo-hexyl)nicotinamide] | < 300 nM

The next lines start with the values.

Row | IC50 | Structure (SMILES)
14 | < 300 nM | CNC(=O)c1ccc(-n2c(=O)n(C[C@H]3CC[C@H](NC(=O)c4cc(Cl)cnc4CCOC)CC3)c3ccccc32)cn1 [Example 321, 5-(3-(((1r,4r)-4-(5-chloro-2-(2-methoxyethyl)nico-tinamido)cyclohexyl)methyl)-2-oxo-2,3-dihydro-1H-benzo [d]imidazol-1-yl)-N-methylpicolinamide]
15 | < 300 nM | CNC(=O)c1ccc(-n2c(=O)n(C[C@H]3CC[C@H](NC(=O)c4cc(Cl)cnc4C4CCC4)CC3)c3ccccc32)cn1 [Example 322, 5-(3-(((1r,4r)-4-(5-chloro-2-cyclobutylnicotinamido)cyclohexyl)methyl)-2-oxo-2,3-dihydro-1H-benzo[d]imidazol-1-yl)-N-methyl-picolinamide]
16 | < 300 nM | COc1ccc(-n2c(=O)n(C[C@H]3CC[C@H](NC(=O)c4cc(Cl)cnc4C(F)F)CC3)c3ccccc32)cn1 [Example 323, 5-chloro-2-(difluoromethyl)-N-((1r,4r)-4-((3-(6-methoxy-pyridin-3-yl)-2-oxo-2,3-di-hydro-1H-benzo[d]imidazol-1-yl)methyl)cyclohexyl)nico-tinamide]
17 | < 300 nM | Cc1ccc(-n2c(=O)n(C[C@H]3CC[C@H](NC(=O)c4cc(Cl)cnc4C(F)F)CC3)c3ccccc32)cn1 [Example 324, 5-chloro-2-(difluoromethyl)-N-((1r,4r)-4-((3-(6-methyl-pyridin-3-yl)-2-oxo-2,3-dihydro-1H-benzo[d]imidazol-1-yl)methyl)cyclohexyl)nico-tinamide]
18 | < 300 nM | CNC(=O)c1ccc(-n2c(=O)n(C[C@H]3CC[C@H](NC(=O)c4cc(Cl)cnc4C(F)F)CC3)c3ccccc32)cn1 [Example 325, 5-(3-(((1r,4r)-4-(5-chloro-2-(difluoromethyl)nicotina-mido)cyclohexyl)methyl)-2-oxo-2,3-dihydro-1H-benzo [d]imidazol-1-yl)-N-methylpicolinamide]
19 | < 300 nM | Cn1cnc2cc(-n3c(=O)n(C[C@H]4CC[C@H](NC(=O)c5cc(Cl)cnc5C(F)(F)F)CC4)c4ccccc43)ccc21 [Example 326, 5-chloro-N-((1r,4r)-4-((1′-methyl-2-oxo-1′H-[1,5′-bibenzo[d]imidazol]-3(2H)-yl)methyl)cyclohexyl)-2-(trifluoromethyl)nicotinamide]
20 | < 300 nM | O=C(N[C@H]1CC[C@H](Cn2c(=O)n(-c3ccc4cncn4c3)c3ccccc32)CC1)c1cc(Cl)cnc1C(F)(F)F [Example 327, 5-chloro-N-((1r,4r)-4-((3-(imidazo[1,5-a]pyridin-6-yl)-2-oxo-2,3-dihydro-1H-benzo[d]imidazol-1-yl)methyl)cyclohexyl)-2-(trifluoromethyl)nicotinamide]
21 | < 300 nM | CNC(=O)c1ccc(-n2c(=O)n(C[C@H]3CC[C@H](NC(=O)c4cc(Cl)cnc4N(C)C)CC3)c3ccccc32)cn1 [Example 328, 5-(3-(((1r,4r)-4-(5-chloro-2-(dimethylamino)nicotinamido)cyclohexyl)methyl)-2-oxo-2,3-dihydro-1H-benzo[d]imidazol-1-yl)-N-methyl-picolinamide]
22 | < 300 nM | COCc1ncc(Cl)cc1C(=O)N[C@H]1CC[C@H](Cn2c(=O)n(-c3ccc(C)nc3)c3ccccc32)CC1 [Example 329, 5-chloro-2-(methoxymethyl)-N-((1r,4r)-4-((3-(6-methyl-pyridin-3-yl)-2-oxo-2,3-dihydro-1H-benzo[d]imidazol-1-yl)methyl)cyclohexyl) nicotinamide]
23 | < 300 nM | Cc1cc(C)c(-n2c(=O)n(C[C@H]3CC[C@H](NC(=O)c4cc(Cl)cnc4C)CC3)c3ccccc32)cn1 [Example 330, 5-chloro-N-((1r,4r)-4-((3-(4,6-dimethylpyridin-3-yl)-2-oxo-2,3-dihydro-1H-benzo [d]imidazol-1-yl)methyl)cyclohexyl)-2-methylnico-tinamide]
24 | < 300 nM | Cc1ncc(Cl)cc1C(=O)N[C@H]1CC[C@H](Cn2c(=O)n(-c3ccnc(C)c3C)c3ccccc32)CC1 [Example 331, 5-chloro-N-((1r,4r)-4-((3-(2,3-dimethylpyridin-4-yl)-2-oxo-2,3-dihydro-1H-benzo [d]imidazol-1-yl)methyl)cyclohexyl)-2-methylnico-tinamide]
25 | < 300 nM | CNc1ccc(-n2c(=O)n(C[C@H]3CC[C@H](NC(=O)c4cc(Cl)cnc4C(F)(F)F)CC3)c3ccccc32)cn1 [Example 332, 5-chloro-N-((1r,4r)-4-((3-(6-(methylamino)pyridin-3-yl)-2-oxo-2,3-dihydro-1H-benzo[d]imidazol-1-yl)methyl)cyclohexyl)-2-(trifluoromethyl) nicotinamide]
